Key:
[1] = Plasma drug levels in rats, repeat daily dosing 7 days, LCMS (Example 13); format: in vivo, Sprague-Dawley rats
Experimental: Female Sprague-Dawley rats were single or double-housed and randomly assigned to four groups (n=5-6 per group) as described in Table 20, and then weighed.
After the treatment ceased, the animals were monitored on days 9 and 11 (washout period).
Body weight and food intake were measured on days 0, 1, 3, 5 and 7. Ca was measured on days 0, 1, 2, 3, 4, 7, 9 and 11. Pi was determined on the same samples, except for days 9 and 11.

serum phosphate = experiment: Serum phosphate in parathyroidectomized rats, ten daily doses (Example 16); format: in vivo, Sprague-Dawley rats; settings: for starting serum phosphate concentration: PTx rats, before first dose
Description: Rats were randomly distributed among 5 groups and injected subcutaneously for ten consecutive days with either vehicle or SEQ ID NO; 87 (10, 25, 40 nmol/kg; n=8). Two separate vehicle treated groups of rats were studied. The first represented control rats surgically managed like the remaining rats, but their parathyroid gland was not removed (sham control). The second vehicle control group represented rats that were surgically managed in the same manner as the SEQ ID NO: 87 treated rats. Following surgery and one week prior to testing all the rats were placed on a defined diet at a specific calcium concentration.
Determination of phosphate levels was conducted with sampling at near-identical times to the serum calcium, differing only in the last days of the washout period. […] The starting phosphate level was 7.003 mg/dl, as compared to 11.317 mg/dl in the vehicle control group of the PTx rats. […] The difference between the two control groups was maintained through the course of the experiment. […] Efficacy was fully maintained through observation at Day 10, one day after the last administered dose. […] Twenty-five days after study initiation, all PTx-rats aligned as a group with increased phosphate, as compared to sham control rats.

[2] = Pharmacokinetics in rats after single subcutaneous dose, LCMS (Example 10); settings: rats
Description: Female Sprague-Dawley rats were randomly distributed among four groups with five or six rats per group. […] Dose volume was based on body weight and recorded prior to dosing.

For CC[C@H](C)[C@H](NC(=O)[C@H](CCC(=O)O)NC(=O)[C@H](CO)NC(=O)[C@@H](NC(=O)[C@H](CO)NC(=O)CN(C)C(=O)[C@H](N)CCCCNC(=O)CC[C@H](NC(=O)COCCOCCNC(=O)COCCOCCNC(=O)CC[C@H](NC(=O)CCCCCCCCCCCCCCCCC(=O)O)C(=O)O)C(=O)O)C(C)C)C(=O)N[C@@H](CCC(N)=O)C(=O)N[C@@H](CC(C)C)C(=O)N[C@@H](CCSC)C(=O)N[C@@H](Cc1c[nH]cn1)C(=O)N[C@@H](CC(N)=O)C(=O)N[C@@H](CC(C)C)C(=O)NCC(=O)N[C@@H](CCCCN)C(=O)N[C@@H](Cc1c[nH]cn1)C(=O)N[C@@H](CC(C)C)C(=O)N[C@@H](CC(N)=O)C(=O)N[C@@H](CO)C(=O)N[C@@H](CCSC)C(=O)N[C@@H](CCC(=O)O)C(=O)N[C@@H](CCCNC(=N)N)C(=O)N[C@H](C(=O)N[C@@H](CCC(=O)O)C(=O)N[C@@H](Cc1c[nH]c2ccccc12)C(=O)N[C@@H](CC(C)C)C(=O)N[C@@H](CCCNC(=N)N)C(=O)N[C@@H](CCCCN)C(=O)N[C@@H](CCCCN)C(=O)N[C@@H](CC(C)C)C(=O)N[C@@H](CCC(N)=O)C(=O)N[C@@H](CC(=O)O)C(=O)N[C@H](C(=O)N[C@@H](Cc1c[nH]cn1)C(=O)N[C@@H](CCCCNC(=O)CC[C@H](NC(=O)COCCOCCNC(=O)COCCOCCNC(=O)CC[C@H](NC(=O)CCCCCCCCCCCCCCCCC(=O)O)C(=O)O)C(=O)O)C(=O)O)C(C)C)C(C)C [SEQ ID NO: 87], the “daily administrations to reach steady state plasma levels” value ([1]; daily SC dosing) was “four”, the “difference in total concentration of prodrug to drug” value ([1]; seven daily SC injections, FIGS. 19A, 19B) was 4 fold and the “serum phosphate levels versus sham control” value (serum phosphate; PTx rats, 10, 25, 40 nmol/kg daily SC, after seven days) was “comparable to sham control rats”. For the same molecule, the “starting serum phosphate concentration” value (serum phosphate; treatment group 10 nmol/kg) was 11.412 mg/dL, the “starting serum phosphate concentration” value (serum phosphate; treatment group 25 nmol/kg) was 10.673 mg/dL and the “starting serum phosphate concentration” value (serum phosphate; treatment group 40 nmol/kg) was 8.152 mg/dL. The “starting serum phosphate, decreased level versus PTx vehicle” value (serum phosphate; high-dose group 40 nmol/kg) was 28%, the “starting serum phosphate, increase versus PTx vehicle” value (serum phosphate; low-dose group 10 nmol/kg) was 1.0% and the “starting serum phosphate, decreased level versus PTx vehicle” value (serum phosphate; mid-dose group 25 nmol/kg) was 5.7%. The “time of return to baseline value, prodrug” value ([2]; SEQ ID NO: 87 30 nmol/kg SC) was “one week” and the “tolerability” value ([2]; doses where prodrug and drug could be measured by LCMS) was “did not adversely affect the rats”.

Reference: US20260224716A1, “PTH ANALOGS FOR THE TREATMENT OF HYPOPARATHYROIDISM” (priority 2020, published 2026)
